We go through nine compounds from patent US7977120B2, “Fluorescent sensors for cellular amines” (The Curators of the University of Missouri, priority 2005, dated 2011).

The assay can be described thus: Titration of Sensor Ia with various analytes (UV-vis and fluorescence). It counts as binding. Particulars: for Isat/I0 (λex = 446 nm): fluorescence intensity at saturation from theoretical fit to binding isotherm; for Isat/I0 (λex = 484 nm) / Isat/I0 (λex = 495 nm): fluorescence intensity at saturation from theoretical fit; for Kn (association constant): fluorescence spectroscopy, λem = 505 nm, error ± 20%, triplicate titration; for Isat/I0 (λex = 484 nm) / Kn (association constant): λex = 484 nm; for binding affinity for sensor Ia (in words): compared with catecholamines. The procedure:
One exemplary coumarin-based sensor, 2-(((5-(7-(diethylamino)-3-formyl-2-oxo-2H-chromen-4-yl)pentyl)(methyl)amino)methyl)phenylboronic acid, sensor Ia, has been examined spectrophotometrically by titration with dopamine under neutral aqueous conditions in which a reducing agent is included to suppress oxidation of the air-sensitive catechol group.
The titration conditions are 10 μM sensor Ia with 100 mM Na2S2O3, 50 mM HEPES, 20 mM NaCl, pH=7.0, and at 37° C. […] See also, Org. Lett. 2004, 6(21), 3727-3730, which is incorporated herein by reference.
Binding constants (Ka) are determined by fluorescence titrations.

Take `NC(CCC(=O)O)C(=O)O` (centres unmarked): the “Isat/I0 (λex = 446 nm)” value amounted to 0.87, the “Isat/I0 (λex = 484 nm)” value is on record as 7.0, the “Isat/I0 (λex = 495 nm)” value is 25 and the “Kn (association constant)” value came to 6.8 M⁻¹.

In the case of `NCCCCC(N)C(=O)O` (centres unmarked), the “Isat/I0 (λex = 446 nm)” value is reported as 0.75, the “Isat/I0 (λex = 484 nm)” value is on record as 8.0, the “Isat/I0 (λex = 495 nm)” value came to 25 and the “Kn (association constant)” value stood at 4.0 M⁻¹.

As for `NC1C(O)OC(CO)C(O)C1O` (centres unmarked), the “Isat/I0 (λex = 446 nm)” value amounted to 0.55, the “Isat/I0 (λex = 484 nm)” value was 5.9, the “Isat/I0 (λex = 495 nm)” value came to 27 and the “Kn (association constant)” value is 5.0 M⁻¹.

Regarding `NCCc1ccc(O)cc1` [Tyramine], the “binding affinity for sensor Ia (in words)” value (“binding affinity” for short) is given as “significantly reduced affinity”, the “Isat/I0 (λex = 446 nm)” value amounted to 0.41, the “Isat/I0 (λex = 484 nm)” value came to 8.0 and the “Isat/I0 (λex = 495 nm)” value was found to be 52. Besides, the “Kn (association constant)” value came to 250 M⁻¹.

On to `NCCc1ccc(O)c(O)c1` [dopamine], for which the “Isat/I0 (λex = 446 nm)” value worked out at 0.50, the “Isat/I0 (λex = 484 nm)” value is on record as 0.60 and the “Kn (association constant)” value came out at 3400 M⁻¹.

With `CNCC(O)c1ccc(O)c(O)c1` (centres unmarked) [epinephrine], the “Isat/I0 (λex = 446 nm)” value is 0.73, the “Isat/I0 (λex = 484 nm)” value is 0.76, the “Isat/I0 (λex = 495 nm)” value turned out to be 0.77 and the “Kn (association constant)” value was found to be 5000 M⁻¹.

For `N[C@H]1C(O)O[C@H](CO)[C@@H](O)[C@@H]1O` (some centres unmarked) [glucosamine], the “binding affinity” value is “affinity similar to the simple amines”.

As to `N[C@@H](CCC(=O)O)C(=O)O` [glutamate], the “binding affinity” value is “low affinity”.

Turning to `NCC(O)c1ccc(O)c(O)c1` (centres unmarked) [norepinephrine], the “Isat/I0 (λex = 446 nm)” value came to 0.39, the “Isat/I0 (λex = 484 nm)” value amounted to 0.46 and the “Kn (association constant)” value is 6500 M⁻¹.
